The results in this text go back to patent US10202377B2, “3-(1H-benzo[D]imidazol-2-yl)-1H-pyrazolo[3,4-C]pyridine and therapeutic uses thereof” (Samumed, LLC, priority 2014, dated 2019).

Assay [1] concerns Wnt activity (Sp5-Luc reporter, SW480 colon carcinoma cells). The assay is described as follows: Sp5-Luc Wnt reporter gene screening assay in SW480 colon carcinoma cells. The note with it: Homo sapiens. In general terms: A reporter such as luciferase makes a cellular process visible.
Assay [2] relates to primary human fibroblasts derived from IPF patients (LL29 cells). The assay can be described thus: Inhibition of fibrosis (αSMA staining) in TGF-β1-treated primary human fibroblasts from IPF patients. Type of assay: cell-based. The conditions noted are these: Fibroblast, 96 h, TGF-β1 20 ng/mL, 4 days. A digest of the protocol:
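LL29 IPF fibroblasts in F12 with 1% FBS were stimulated with TGF-β1 (20 ng/mL) and incubated 4 days at 37 °C. SYTOX-positive dead cells were excluded, and αSMA-positive cells were counted by immunostaining as % of total. Values were normalized to TGF-β1/DMSO wells on the same plate, and EC50 derived.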

The term IC50 denotes the concentration needed to halve the response being measured. Higher therefore signals weaker potency. As a reminder, the EC50 is the concentration that produces a half-maximal response. For the compound `CS(=O)(=O)NCc1cc(F)cc(-c2cccc3[nH]c(-c4n[nH]c5cnc(-c6cncc(NC(=O)c7ccccc7)c6)cc45)nc23)c1` [Compound 427, N-(5-(3-(4-(3-Fluoro-5-(methylsulfonamidomethyl)phenyl)-1H-benzo[d]imidazol-2-yl)-1H-pyrazolo[3,4-c]pyridin-5-yl)pyridin-3-yl)benzamide], in assay [1], the concentration for half-maximal inhibition (IC50) was 172 nM. This compound yielded an EC50 in assay [2] of 9 nM.

Turning to `Fc1cccc(-c2cccc3[nH]c(-c4n[nH]c5cnc(C6CCNCC6)cc45)nc23)c1` [Compound 937, 3-(4-(3-Fluorophenyl)-1H-benzo[d]imidazol-2-yl)-5-(piperidin-4-yl)-1H-pyrazolo[3,4-c]pyridine], in assay [1], the IC50 came out at 3160 nM. In assay [2], this compound had an EC50 of 9990 nM.

`CC(C)C(=O)Nc1cncc(-c2cc3c(-c4nc5c(-c6cccnc6)cccc5[nH]4)n[nH]c3cn2)c1` [Compound 87, N-(5-(3-(4-(Pyridin-3-yl)-1H-benzo[d]imidazol-2-yl)-1H-pyrazolo[3,4-c]pyridin-5-yl)pyridin-3-yl)isobutyramide] registered an IC50 in assay [1] of 45.4 nM. The EC50 in assay [2] was found to be 124 nM.

In the case of `CCCCC(=O)Nc1cncc(-c2cc3c(-c4nc5c(-c6cc(F)cc(NCCN(C)C)c6)cccc5[nH]4)n[nH]c3cn2)c1` [Compound 460, N-(5-(3-(4-(3-((2-(Dimethylamino)ethyl)amino)-5-fluorophenyl)-1H-benzo[d]imidazol-2-yl)-1H-pyrazolo[3,4-c]pyridin-5-yl)pyridin-3-yl)pentanamide], half-maximal inhibition in assay [1] (IC50) required 182 nM. In assay [2], this compound came in with an EC50 of 1060 nM.

Compound `Fc1ccc(-c2cccc3[nH]c(-c4n[nH]c5cnc(-c6cncc(CN7CCCC7)c6)cc45)nc23)s1` [Compound 352, 3-(4-(5-Fluorothiophen-2-yl)-1H-benzo[d]imidazol-2-yl)-5-(5-(pyrrolidin-1-ylmethyl)pyridin-3-yl)-1H-pyrazolo[3,4-c]pyridine] returned an IC50 in assay [1] of 30.5 nM. Besides, the concentration for a half-maximal effect (EC50) in assay [2] was 9990 nM.

In assay [1], `O=C(Nc1cncc(-c2cc3c(-c4nc5c(-c6ccc(F)s6)cccc5[nH]4)n[nH]c3cn2)c1)C1CCC1` [Compound 358, N-(5-(3-(4-(5-Fluorothiophen-2-yl)-1H-benzo[d]imidazol-2-yl)-1H-pyrazolo[3,4-c]pyridin-5-yl)pyridin-3-yl)cyclobutanecarboxamide] yielded an IC50 of 11.6 nM. The compound also came in with a concentration for a half-maximal effect (EC50) in assay [2] of 9990 nM.

As to `c1ccc(CNCc2cncc(-c3cc4c(-c5nc6c(-c7cccnc7)cccc6[nH]5)n[nH]c4cn3)c2)cc1` [Compound 101, N-Benzyl-1-(5-(3-(4-(pyridin-3-yl)-1H-benzo[d]imidazol-2-yl)-1H-pyrazolo[3,4-c]pyridin-5-yl)pyridin-3-yl)methanamine], it took 183 nM to reach half-maximal inhibition in assay [1] (IC50). The EC50 in assay [2] turned out to be 9 nM.

Take `Cc1ccncc1-c1cc2c(-c3nc4c(-c5ccncc5)cccc4[nH]3)n[nH]c2cn1` [Compound 109, 5-(4-Methylpyridin-3-yl)-3-(4-(pyridin-4-yl)-1H-benzo[d]imidazol-2-yl)-1H-pyrazolo[3,4-c]pyridine]: half-maximal inhibition in assay [1] (IC50) was put at 42.5 nM. Moreover, in assay [2], the EC50 amounted to 29 nM.

For the compound `Cc1ccc(-c2cccc3[nH]c(-c4n[nH]c5cnc(-c6cncc(NC(=O)C(C)C)c6)cc45)nc23)s1` [Compound 373, N-(5-(3-(4-(5-Methylthiophen-2-yl)-1H-benzo[d]imidazol-2-yl)-1H-pyrazolo[3,4-c]pyridin-5-yl)pyridin-3-yl)isobutyramide], the IC50 in assay [1] worked out at 32.6 nM. The EC50 in assay [2] came to 14 nM.

Compound `CCC(=O)Nc1cncc(-c2cc3c(-c4nc5c(N6CCCCC6)cccc5[nH]4)n[nH]c3cn2)c1` [Compound 157, N-(5-(3-(4-(Piperidin-1-yl)-1H-benzo[d]imidazol-2-yl)-1H-pyrazolo[3,4-c]pyridin-5-yl)pyridin-3-yl)propionamide] returned an IC50 in assay [1] of 97.2 nM. In addition, in assay [2], the midpoint of the response, the EC50, lay at 99 nM.

On to `CC(=O)c1ccc(-c2cccc3[nH]c(-c4n[nH]c5cnc(-c6cncc(NC(=O)Cc7ccccc7)c6)cc45)nc23)s1` [Compound 400, N-(5-(3-(4-(5-Acetylthiophen-2-yl)-1H-benzo[d]imidazol-2-yl)-1H-pyrazolo[3,4-c]pyridin-5-yl)pyridin-3-yl)-2-phenylacetamide], for which, in assay [1], inhibition was half-maximal at 42.3 nM (IC50). Moreover, the response in assay [2] was half-maximal at 218 nM (EC50).

On to `FC1(F)CCN(Cc2cncc(-c3cc4c(-c5nc6c(-c7cccs7)cccc6[nH]5)n[nH]c4cn3)c2)C1` [Compound 337, 5-(5-((3,3-Difluoropyrrolidin-1-yl)methyl)pyridin-3-yl)-3-(4-(thiophen-2-yl)-1H-benzo[d]imidazol-2-yl)-1H-pyrazolo[3,4-c]pyridine], for which half-maximal inhibition in assay [1] (IC50) was put at 90.8 nM. Also, the EC50 in assay [2] turned out to be 9 nM.

As to `Fc1ccc(-c2cccc3[nH]c(-c4n[nH]c5cnc(-c6cncc(CN7CCCC7)c6)cc45)nc23)cc1` [Compound 40, 3-(4-(4-Fluorophenyl)-1H-benzo[d]imidazol-2-yl)-5-(5-(pyrrolidin-1-ylmethyl)pyridin-3-yl)-1H-pyrazolo[3,4-c]pyridine], in assay [1], the IC50 is 287 nM. Also, in assay [2], a half-maximal effect (EC50) was put at 78 nM.

In assay [1], `CC(C)(C)C(=O)Nc1cncc(-c2cc3c(-c4nc5c(-c6cc(F)cc(CNS(C)(=O)=O)c6)cccc5[nH]4)n[nH]c3cn2)c1` [Compound 424, N-(5-(3-(4-(3-Fluoro-5-(methylsulfonamidomethyl)phenyl)-1H-benzo[d]imidazol-2-yl)-1H-pyrazolo[3,4-c]pyridin-5-yl)pyridin-3-yl)pivalamide] came in with an IC50 of 19.9 nM. Moreover, the half-maximal effective concentration (EC50) in assay [2] is 51 nM.

In assay [1], `CC(C)Nc1cncc(-c2cc3c(-c4nc5c(-c6ccoc6)cccc5[nH]4)n[nH]c3cn2)c1` [Compound 298, 5-(3-(4-(Furan-3-yl)-1H-benzo[d]imidazol-2-yl)-1H-pyrazolo[3,4-c]pyridin-5-yl)-N-isopropylpyridin-3-amine] displayed an IC50 of 12.9 nM. Further, the EC50 in assay [2] was found to be 9 nM.

On to `CCCC(=O)Nc1cncc(-c2cc3c(-c4nc5c(-c6ccc(C)s6)cccc5[nH]4)n[nH]c3cn2)c1` [Compound 381, N-(5-(3-(4-(5-Methylthiophen-2-yl)-1H-benzo[d]imidazol-2-yl)-1H-pyrazolo[3,4-c]pyridin-5-yl)pyridin-3-yl)butyramide], for which the IC50 in assay [1] was found to be 21.5 nM. In assay [2], this compound showed an EC50 of 79 nM.

Take `c1cc(-c2ccoc2)c2nc(-c3n[nH]c4cnc(-c5cncc(CNCC6CCCC6)c5)cc34)[nH]c2c1` [Compound 310, 1-Cyclopentyl-N-((5-(3-(4-(furan-3-yl)-1H-benzo[d]imidazol-2-yl)-1H-pyrazolo[3,4-c]pyridin-5-yl)pyridin-3-yl)methyl)methanamine]: in assay [1], the IC50 was found to be 58.8 nM. Further, in assay [2], the EC50 was 83 nM.

In assay [1], `CCC(=O)Nc1cncc(-c2cc3c(-c4nc5c(-c6cccc(F)c6)cccc5[nH]4)n[nH]c3cn2)c1` [Compound 1, N-(5-(3-(4-(3-Fluorophenyl)-1H-benzo[d]imidazol-2-yl)-1H-pyrazolo[3,4-c]pyridin-5-yl)pyridin-3-yl)propionamide] had an IC50 of 43.9 nM. In assay [2], this compound showed a half-maximal effective concentration (EC50) of 9 nM.

In turn, `FC1(F)CCN(Cc2cncc(-c3cc4c(-c5nc6c(N7CCCCC7)cccc6[nH]5)n[nH]c4cn3)c2)C1` [Compound 181, 5-(5-((3,3-Difluoropyrrolidin-1-yl)methyl)pyridin-3-yl)-3-(4-(piperidin-1-yl)-1H-benzo[d]imidazol-2-yl)-1H-pyrazolo[3,4-c]pyridine] yielded an IC50 in assay [1] of 87.1 nM. The compound also displayed an EC50 in assay [2] of 9 nM.

With `Fc1ccc(-c2cccc3[nH]c(-c4n[nH]c5cnc(-c6cncnc6)cc45)nc23)cc1` [Compound 52, 3-(4-(4-Fluorophenyl)-1H-benzo[d]imidazol-2-yl)-5-(pyrimidin-5-yl)-1H-pyrazolo[3,4-c]pyridine], the IC50 in assay [1] was 122 nM. The same compound gave an EC50 in assay [2] of 147 nM.

`CC(C)C(=O)Nc1cncc(-c2cc3c(-c4nc5c(-c6cccs6)cccc5[nH]4)n[nH]c3cn2)c1` [Compound 321, N-(5-(3-(4-(Thiophen-2-yl)-1H-benzo[d]imidazol-2-yl)-1H-pyrazolo[3,4-c]pyridin-5-yl)pyridin-3-yl)isobutyramide] showed a 50% inhibitory concentration (IC50) in assay [1] of 16.3 nM. The concentration for a half-maximal effect (EC50) in assay [2] was 306 nM.

Take `O=C(Nc1cncc(-c2cc3c(-c4nc5c(-c6ccncc6)cccc5[nH]4)n[nH]c3cn2)c1)C1CCCCC1` [Compound 126, N-(5-(3-(4-(Pyridin-4-yl)-1H-benzo[d]imidazol-2-yl)-1H-pyrazolo[3,4-c]pyridin-5-yl)pyridin-3-yl)cyclohexanecarboxamide]: the half-inhibitory concentration (IC50) in assay [1] was above 10000 nM. Besides, the midpoint of the response in assay [2], the EC50, lay at 9990 nM.

`O=C(Nc1cncc(-c2cc3c(-c4nc5c(-c6ccccn6)cccc5[nH]4)n[nH]c3cn2)c1)c1ccccc1` [Compound 141, N-(5-(3-(4-(Pyridin-2-yl)-1H-benzo[d]imidazol-2-yl)-1H-pyrazolo[3,4-c]pyridin-5-yl)pyridin-3-yl)benzamide] registered an IC50 in assay [1] of 411 nM. The EC50 in assay [2] came out at 39 nM.

In the case of `Cc1cn(-c2cccc3[nH]c(-c4n[nH]c5cnc(-c6cncc(NC(=O)C(C)(C)C)c6)cc45)nc23)cn1` [Compound 190, N-(5-(3-(4-(4-Methyl-1H-imidazol-1-yl)-1H-benzo[d]imidazol-2-yl)-1H-pyrazolo[3,4-c]pyridin-5-yl)pyridin-3-yl)pivalamide], the IC50 in assay [1] amounted to 53.5 nM. In assay [2], this compound registered an EC50 of 9 nM.

In assay [1], `Fc1cccc(-c2cccc3[nH]c(-c4n[nH]c5cnc(-c6ccncc6)cc45)nc23)c1` [Compound 952, 3-(4-(3-Fluorophenyl)-1H-benzo[d]imidazol-2-yl)-5-(pyridin-4-yl)-1H-pyrazolo[3,4-c]pyridine] had an IC50 of 53 nM. For the same compound, the concentration for a half-maximal effect (EC50) in assay [2] is 9990 nM.

In assay [1], `CN(C)Cc1cncc(-c2cc3c(-c4nc5c(-c6cccs6)cccc5[nH]4)n[nH]c3cn2)c1` [Compound 325, N,N-Dimethyl-1-(5-(3-(4-(thiophen-2-yl)-1H-benzo[d]imidazol-2-yl)-1H-pyrazolo[3,4-c]pyridin-5-yl)pyridin-3-yl)methanamine] displayed an IC50 of 26.7 nM. Besides, the EC50 in assay [2] turned out to be 9 nM.
